How the values were obtained:
[1] = Thermal stability: FTIR spectra after heating for 30 minutes; format: physicochemical
Method: Infrared (IR) spectroscopy was used to quantify samples. Nicolet 6700 FT-IR spectrophotometer was used to measure absorbance or transmittance value of samples. All samples were finely ground and mixed with fused KBr to form pellets in the measurements. Typical parameters included: scan range of 400-4000 cm^−1; resolution 4.00 cm^−1; and the number of scans were 32.
The FTIR spectra of the 0.5000 g calcium montmorillonite chelated with 0.2500 g of LAA heated at 100° C., 120° C., 140° C., 160° C., 180° C. and 200° C. for 30 minutes are shown in FIG. 10. As reference, the FTIR spectra of LAA at room temperature and after heating to 90, 120, 140, 160, 180 and 200° C. for 30 minutes are also shown in FIG. 10.
Further at 140° C., the structure of LAA is altered as the carbonyl stretch at 1750 cm^−1 was broader and the fingerprint region was changed.
First, 0.1000 g samples of the chelated clays were prepared as described in previous examples. Then to determine the thermal stability, 0.1000 g samples of 0.5000 g calcium montmorillonite chelated with 0.0500 g, 0.1000 g, 0.2500 g and 0.5000 g of LAA, were heated in an oven at 90° C. for 30 minutes. Pellets of the cooled samples were prepared with fused KBr and FTIR spectra of these samples were obtained. Reference spectra of the calcium montmorillonite chelated clays before heating were also obtained for comparison. […]

[2] = in blood plasma; cited from earlier work

O=C1O[C@H]([C@@H](O)CO)C(O)=C1O [LAA, L-ascorbic acid]
structure (FTIR) after heating at 140° C. ([1]; 140° C., 30 minutes): altered | change of structure (FTIR) as the temperature is increased ([1]; heated 30 minutes at 90/100 to 200° C.): changes gradually as the temperature is increased until it is completely destroyed | biological half-life [2]: about 30 minutes

From patent US20110184006A1, “METHOD AND COMPOSITION FOR THERMALLY STABILIZING VITAMIN C WITHIN NANO LAYERS OF MONTMORILLONITE CLAY” (NATIONAL RESEARCH COUNCIL OF SRI LANKA, priority 2010, published 2011)
